≈ marks a conversion by molar mass, not a printed value. Blank lines part the entries; values can stand above or below the compound they belong to.
Legend:
Staphylococcus aureus [1] = assay: Antibacterial activity against Methicillin-resistant Staphylococcus aureus ATCC 33591 assessed as bacterial growth inhibition incubated for 20 to 24 hrs by microbroth serial dilution assay; format: functional; conditions: time 20-24 hrs
Staphylococcus aureus [2] = assay: Antibacterial activity against Methicillin-resistant Staphylococcus aureus ATCC 43300 assessed as bacterial growth inhibition incubated for 20 to 24 hrs by microbroth serial dilution assay; format: functional; conditions: time 20-24 hrs
[3] = tested on: Staphylococcus epidermidis; assay: Antibacterial activity against Methicillin-resistant Staphylococcus epidermidis ATCC 51625 assessed as bacterial growth inhibition incubated for 20 to 24 hrs by microbroth serial dilution assay; format: functional; conditions: time 20-24 hrs
[4] = tested on: Staphylococcus epidermidis; assay: Antibacterial activity against Methicillin-sensitive Staphylococcus epidermidis ATCC 12228 assessed as bacterial growth inhibition incubated for 20 to 24 hrs by microbroth serial dilution assay; format: functional; conditions: time 20-24 hrs
Staphylococcus aureus [5] = assay: Antibacterial activity against Staphylococcus aureus ATCC 25923 assessed as bacterial growth inhibition incubated for 20 to 24 hrs by microbroth serial dilution assay; format: functional; conditions: time 20-24 hrs
[6] = tested on: Staphylococcus epidermidis; assay: Selectivity ratio of MBC for antibacterial activity against Methicillin-sensitive Staphylococcus epidermidis […] to MIC for antibacterial activity against Methicillin-sensitive Staphylococcus epidermidis […]; format: functional
Staphylococcus aureus [7] = assay: Selectivity ratio of MBC for antibacterial activity against Staphylococcus aureus to MIC for antibacterial activity against Staphylococcus aureus; format: functional
Staphylococcus aureus [8] = assay: Antibacterial activity against Methicillin-sensitive Staphylococcus aureus ATCC 29213 assessed as bacterial growth inhibition incubated for 20 to 24 hrs by microbroth serial dilution assay
Staphylococcus aureus [9] = assay: Selectivity ratio of MBC for antibacterial activity against Methicillin-sensitive Staphylococcus aureus ATCC 29213 to MIC for antibacterial activity against Methicillin-sensitive Staphylococcus aureus ATCC 29213
Staphylococcus aureus [10] = assay: Selectivity ratio of MBC for antibacterial activity against Methicillin-resistant Staphylococcus aureus ATCC 33591 to MIC for antibacterial activity against Methicillin-resistant Staphylococcus aureus ATCC 33591; format: functional

SMILES: C=C[C@]1(C)C[C@@H](OC(=O)CSc2nc(NC(=O)CN3CCC(O)CC3)nc3[nH]cnc23)[C@@]2(C)C3C(=O)CC[C@@]3(CC[C@H]2C)[C@@H](C)[C@@H]1O (stereo not given in full)
MIC (Staphylococcus aureus [1]): 16 µg/mL (≈ 23.9 µM)
MIC (Staphylococcus aureus [2]): 32 µg/mL (≈ 47.8 µM)
MIC [3]: 2 µg/mL (≈ 2.99 µM)
MIC [4]: 2 µg/mL (≈ 2.99 µM)
MIC (Staphylococcus aureus [5]): 16 µg/mL (≈ 23.9 µM)
Ratio [6]: >4
Ratio (Staphylococcus aureus [7]): >4
MIC (Staphylococcus aureus [8]): 16 µg/mL (≈ 23.9 µM)

SMILES: C=C[C@]1(C)C[C@@H](OC(=O)CSc2nc(N)nc3c2ncn3C(=O)c2ccc([N+](=O)[O-])cc2)[C@@]2(C)C3C(=O)CC[C@@]3(CC[C@H]2C)[C@@H](C)[C@@H]1O (stereo not given in full)
MIC (Staphylococcus aureus [1]): 0.125 µg/mL (≈ 0.185 µM)
MIC (Staphylococcus aureus [2]): 0.0625 µg/mL (≈ 0.0923 µM)
MIC [3]: 0.0625 µg/mL (≈ 0.0923 µM)
MIC [4]: < 0.0078 µg/mL
MIC (Staphylococcus aureus [5]): 0.125 µg/mL (≈ 0.185 µM)
Ratio [6]: >4
Ratio (Staphylococcus aureus [7]): >4
MIC (Staphylococcus aureus [8]): 0.0625 µg/mL (≈ 0.0923 µM)

SMILES: C=C[C@]1(C)C[C@@H](OC(=O)CSc2nc(N)nc3c2ncn3C(=O)NCc2ccc(C)cc2)[C@@]2(C)C3C(=O)CC[C@@]3(CC[C@H]2C)[C@@H](C)[C@@H]1O (stereo not given in full)
MIC (Staphylococcus aureus [1]): 0.0625 µg/mL (≈ 0.0926 µM)
MIC (Staphylococcus aureus [2]): 0.0625 µg/mL (≈ 0.0926 µM)
MIC [3]: 0.0625 µg/mL (≈ 0.0926 µM)
MIC [4]: < 0.0312 µg/mL
MIC (Staphylococcus aureus [5]): 0.125 µg/mL (≈ 0.185 µM)
Ratio [6]: >4
Ratio (Staphylococcus aureus [7]): >4
MIC (Staphylococcus aureus [8]): 0.125 µg/mL (≈ 0.185 µM)
Ratio (Staphylococcus aureus [9]): 4

SMILES: C=C[C@]1(C)C[C@@H](OC(=O)CSc2nc(N)nc3c2ncn3C(=O)NCc2ccccc2OC)[C@@]2(C)C3C(=O)CC[C@@]3(CC[C@H]2C)[C@@H](C)[C@@H]1O (stereo not given in full)
MIC (Staphylococcus aureus [1]): 0.125 µg/mL (≈ 0.181 µM)
MIC (Staphylococcus aureus [2]): 0.0625 µg/mL (≈ 0.0905 µM)
MIC [3]: 0.0625 µg/mL (≈ 0.0905 µM)
MIC [4]: 0.0156 µg/mL (≈ 0.0226 µM)
MIC (Staphylococcus aureus [5]): 0.125 µg/mL (≈ 0.181 µM)
Ratio (Staphylococcus aureus [10]): 4
Ratio [6]: >4
Ratio (Staphylococcus aureus [7]): >4
MIC (Staphylococcus aureus [8]): 0.0625 µg/mL (≈ 0.0905 µM)
Ratio (Staphylococcus aureus [9]): 2

SMILES: C=C[C@]1(C)C[C@@H](OC(=O)CSc2nc(N)nc3c2ncn3C(=O)NCc2ccc([N+](=O)[O-])cc2)[C@@]2(C)C3C(=O)CC[C@@]3(CC[C@H]2C)[C@@H](C)[C@@H]1O (stereo not given in full)
MIC (Staphylococcus aureus [1]): 0.25 µg/mL (≈ 0.354 µM)
MIC (Staphylococcus aureus [2]): 0.25 µg/mL (≈ 0.354 µM)
MIC [3]: 0.0625 µg/mL (≈ 0.0885 µM)
MIC [4]: < 0.0078 µg/mL
MIC (Staphylococcus aureus [5]): 0.125 µg/mL (≈ 0.177 µM)
Ratio [6]: >4
Ratio (Staphylococcus aureus [7]): >4
MIC (Staphylococcus aureus [8]): 0.0625 µg/mL (≈ 0.0885 µM)

SMILES: C=C[C@]1(C)C[C@@H](OC(=O)CSc2nc(N)nc3c2ncn3C(=O)Nc2cccc(F)c2)[C@@]2(C)C3C(=O)CC[C@@]3(CC[C@H]2C)[C@@H](C)[C@@H]1O (stereo not given in full)
MIC (Staphylococcus aureus [1]): 0.25 µg/mL (≈ 0.376 µM)
MIC (Staphylococcus aureus [2]): 0.25 µg/mL (≈ 0.376 µM)
MIC [3]: 0.125 µg/mL (≈ 0.188 µM)
MIC [4]: 0.0156 µg/mL (≈ 0.0235 µM)
MIC (Staphylococcus aureus [5]): 0.25 µg/mL (≈ 0.376 µM)
Ratio [6]: >4
Ratio (Staphylococcus aureus [7]): >4
MIC (Staphylococcus aureus [8]): 0.0625 µg/mL (≈ 0.094 µM)

SMILES: C=C[C@]1(C)C[C@@H](OC(=O)CSc2nc(N)nc3c2ncn3C(=O)NCc2ccccc2)[C@@]2(C)C3C(=O)CC[C@@]3(CC[C@H]2C)[C@@H](C)[C@@H]1O (stereo not given in full)
MIC (Staphylococcus aureus [1]): 0.0312 µg/mL (≈ 0.0473 µM)
MIC (Staphylococcus aureus [2]): 0.0625 µg/mL (≈ 0.0946 µM)
MIC [3]: 0.0625 µg/mL (≈ 0.0946 µM)
MIC [4]: < 0.0078 µg/mL
MIC (Staphylococcus aureus [5]): 0.0312 µg/mL (≈ 0.0473 µM)
Ratio [6]: >4
Ratio (Staphylococcus aureus [7]): >4
MIC (Staphylococcus aureus [8]): 0.0625 µg/mL (≈ 0.0946 µM)

SMILES: C=C[C@]1(C)C[C@@H](OC(=O)CSc2nc(NC(=O)CCl)nc3[nH]cnc23)[C@@]2(C)C3C(=O)CC[C@@]3(CC[C@H]2C)[C@@H](C)[C@@H]1O (stereo not given in full)
MIC (Staphylococcus aureus [1]): 0.5 µg/mL (≈ 0.828 µM)
MIC (Staphylococcus aureus [2]): 0.5 µg/mL (≈ 0.828 µM)
MIC [3]: 0.25 µg/mL (≈ 0.414 µM)
MIC [4]: 0.0156 µg/mL (≈ 0.0258 µM)
MIC (Staphylococcus aureus [5]): 0.5 µg/mL (≈ 0.828 µM)
Ratio [6]: >4
Ratio (Staphylococcus aureus [7]): >4
MIC (Staphylococcus aureus [8]): 0.5 µg/mL (≈ 0.828 µM)

SMILES: C=C[C@]1(C)C[C@@H](OC(=O)CSc2nc(N)nc3c2ncn3C(=O)CCc2ccccc2)[C@@]2(C)C3C(=O)CC[C@@]3(CC[C@H]2C)[C@@H](C)[C@@H]1O (stereo not given in full)
MIC (Staphylococcus aureus [1]): 0.125 µg/mL (≈ 0.189 µM)
MIC (Staphylococcus aureus [2]): 0.125 µg/mL (≈ 0.189 µM)
MIC [3]: 0.125 µg/mL (≈ 0.189 µM)
MIC [4]: 0.0156 µg/mL (≈ 0.0236 µM)
MIC (Staphylococcus aureus [5]): 0.25 µg/mL (≈ 0.379 µM)
Ratio [6]: >4
Ratio (Staphylococcus aureus [7]): 4
MIC (Staphylococcus aureus [8]): 0.125 µg/mL (≈ 0.189 µM)
Ratio (Staphylococcus aureus [9]): >4

SMILES: C=C[C@]1(C)C[C@@H](OC(=O)CSc2nc(N)nc3c2ncn3C(=O)Nc2ccc(C(C)=O)cc2)[C@@]2(C)C3C(=O)CC[C@@]3(CC[C@H]2C)[C@@H](C)[C@@H]1O (stereo not given in full)
MIC (Staphylococcus aureus [1]): 0.0625 µg/mL (≈ 0.0907 µM)
MIC (Staphylococcus aureus [2]): 0.125 µg/mL (≈ 0.181 µM)
MIC [3]: 0.125 µg/mL (≈ 0.181 µM)
MIC [4]: 0.0156 µg/mL (≈ 0.0226 µM)
MIC (Staphylococcus aureus [5]): 0.062 µg/mL (≈ 0.09 µM)
Ratio [6]: >4
Ratio (Staphylococcus aureus [7]): >4
MIC (Staphylococcus aureus [8]): 0.125 µg/mL (≈ 0.181 µM)
Ratio (Staphylococcus aureus [9]): 4

MIC [4]: < 0.0078 µg/mL
SMILES: C=C[C@]1(C)C[C@@H](OC(=O)CSc2nc(N)nc3c2ncn3C(=O)NCCc2ccccc2)[C@@]2(C)C3C(=O)CC[C@@]3(CC[C@H]2C)[C@@H](C)[C@@H]1O (stereo not given in full)

SMILES: C=C[C@]1(C)C[C@@H](OC(=O)CSc2nc(N)nc3c2ncn3C(=O)Nc2ccccc2Cl)[C@@]2(C)C3C(=O)CC[C@@]3(CC[C@H]2C)[C@@H](C)[C@@H]1O (stereo not given in full)
MIC (Staphylococcus aureus [1]): 0.125 µg/mL (≈ 0.183 µM)
MIC (Staphylococcus aureus [2]): 0.125 µg/mL (≈ 0.183 µM)
MIC [3]: 0.0625 µg/mL (≈ 0.0917 µM)
MIC [4]: 0.0078 µg/mL (≈ 0.0114 µM)
MIC (Staphylococcus aureus [5]): 0.125 µg/mL (≈ 0.183 µM)
Ratio [6]: >4
Ratio (Staphylococcus aureus [7]): >4
MIC (Staphylococcus aureus [8]): 0.25 µg/mL (≈ 0.367 µM)
Ratio (Staphylococcus aureus [9]): 4
